Assays:
Format in all cases: functional
[1] = Growth inhibition of human SNB75 cells at 10 uM after 48 hrs by sulforhodamine B assay; settings: SNB-75, 48 h, values are per cent of control
Malme-3M = experiment: Growth inhibition of human MALME-3M cells at 10 uM after 48 hrs by sulforhodamine B assay; settings: values are per cent of control
[2] = Growth inhibition of human UACC257 cells at 10 uM after 48 hrs by sulforhodamine B assay; settings: UACC-257, 48 h, values are per cent of control
[3] = Growth inhibition of human OVCAR3 cells at 10 uM after 48 hrs by sulforhodamine B assay; settings: OVCAR-3, 48 h, values are per cent of control
[4] = Growth inhibition of human OVCAR5 cells at 10 uM after 48 hrs by sulforhodamine B assay; settings: OVCAR-5, 48 h, values are per cent of control
[5] = Growth inhibition of human SKOV3 cells at 10 uM after 48 hrs by sulforhodamine B assay; settings: SK-OV-3, 48 h, values are per cent of control
A498 = experiment: Growth inhibition of human A498 cells at 10 uM after 48 hrs by sulforhodamine B assay; settings: A498, 48 h, values are per cent of control
[6] = Growth inhibition of human UO31 cells at 10 uM after 48 hrs by sulforhodamine B assay; settings: UO-31, 48 h, values are per cent of control
[7] = Growth inhibition of human PC3 cells at 10 uM after 48 hrs by sulforhodamine B assay; settings: PC-3, 48 h, values are per cent of control
MCF7 = experiment: Growth inhibition of human MCF7 cells at 10 uM after 48 hrs by sulforhodamine B assay; settings: MCF7, 48 h, values are per cent of control
MDA-MB-231 = experiment: Growth inhibition of human MDA-MB-231 cells at 10 uM after 48 hrs by sulforhodamine B assay; settings: MDA-MB-231, 48 h, values are per cent of control
CCRF-CEM = experiment: Growth inhibition of human CCRF-CEM cells at 10 uM after 48 hrs by sulforhodamine B assay; settings: values are per cent of control
[8] = Growth inhibition of human HL-60(TB) cells at 10 uM after 48 hrs by sulforhodamine B assay; settings: HL-60, 48 h, values are per cent of control
K562 = experiment: Growth inhibition of human K562 cells at 10 uM after 48 hrs by sulforhodamine B assay; settings: K562, 48 h, values are per cent of control
[9] = Growth inhibition of human MOLT4 cells at 10 uM after 48 hrs by sulforhodamine B assay; settings: MOLT-4, 48 h, values are per cent of control
[10] = Growth inhibition of human RPMI8226 cells at 10 uM after 48 hrs by sulforhodamine B assay; settings: RPMI-8226, 48 h, values are per cent of control
[11] = Growth inhibition of human HOP92 cells at 10 uM after 48 hrs by sulforhodamine B assay; settings: HOP-92, 48 h, values are per cent of control
HT-29 = experiment: Growth inhibition of human HT-29 cells at 10 uM after 48 hrs by sulforhodamine B assay; settings: HT-29, 48 h, values are per cent of control
KM12 = experiment: Growth inhibition of human KM12 cells at 10 uM after 48 hrs by sulforhodamine B assay; settings: KM12, 48 h, values are per cent of control

Structure (SMILES) | growth, % of control at 10 µM [1] [%] | growth, % of control at 10 µM (Malme-3M) [%] | growth, % of control at 10 µM [2] [%] | growth, % of control at 10 µM [3] [%] | growth, % of control at 10 µM [4] [%] | growth, % of control at 10 µM [5] [%] | growth, % of control at 10 µM (A498) [%] | growth, % of control at 10 µM [6] [%] | growth, % of control at 10 µM [7] [%] | growth, % of control at 10 µM (MCF7) [%] | growth, % of control at 10 µM (MDA-MB-231) [%] | growth, % of control at 10 µM (CCRF-CEM) [%] | growth, % of control at 10 µM [8] [%] | growth, % of control at 10 µM (K562) [%] | growth, % of control at 10 µM [9] [%] | growth, % of control at 10 µM [10] [%] | growth, % of control at 10 µM [11] [%] | growth, % of control at 10 µM (HT-29) [%] | growth, % of control at 10 µM (KM12) [%]
COc1ccc(/C=C(\C#N)c2ccc3c(c2)OCO3)cc1OC | 87.5 | 103 | 118 | 109 | 104 | 105 | 96.5 | 88 | 100 | 87.2 | 106 | 89.4 | 72 | 94.8 | 85.2 | 96.9 | 110 | 106 | 96.2
N#C/C(=C\c1ccc2c(c1)OCO2)c1ccc2c(c1)OCO2 | 94.3 | 69 | 80.2 | 71.7 | 97.9 | 85.5 | 73.7 | 86.7 | 70.2 | 23.9 | 66.8 | 73.2 | 57.9 | 24.9 | 67.7 | 75.2 | 94.2 | 39.6 | 42.2
N#C/C(=C\c1cc(Br)cc(Br)c1)c1ccc2c(c1)OCO2 | 77.3 | 84 | 100 | 103 | 100 | 94.4 | 90.4 | 76.5 | 89.2 | 82.3 | 89.9 | 75.4 | 62.9 | 96.2 | 66.6 | 76.6 | 113 | 91.1 | 92.4
